Here are results for 15 compounds from PubChem BioAssay (NCI).

The term TGI denotes the concentration giving total growth inhibition.

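Grown in 96-well plates, cells were treated for 48 hours with each compound at five concentrations. Insufficient inhibition: endpoint recorded as highest concentration tested. At the TGI there is no net growth.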 Bounds are passed on as bounds.

Test systems include SNB-75 CNS; NCI-H226 lung; A549 NSCLC; HS 578T breast; ACHN renal; SW-620 colon; DU-145 prostate; HCC-2998 colon; MDA-N.
Common to all, as to test: DTP human tumour cell line panel, 48 h

As to `C=C1c2nc3ccccc3n2C=C(c2ccc(OC)cc2)N1c1ccc(OCCN2CCOCC2)cc1`, the TGI was above 100 µM with SNB-75 CNS; above 100 µM in the test on NCI-H226 lung; above 100 µM in the test with A549 NSCLC; above 40 µM in the test with HS 578T breast; above 100 µM in the test with ACHN renal; above 100 µM in the test with SW-620 colon. Besides, the TGI with DU-145 prostate, in the test on HCC-2998 colon and in the test with MDA-N was above 100 µM throughout.
For the compound `O=[N+]([O-])c1ccc2ncccc2c1CCc1c([N+](=O)[O-])ccc2ncccc12`, the TGI in the test on SNB-75 CNS, in the test on NCI-H226 lung, with A549 NSCLC, in the test with HS 578T breast, in the test on ACHN renal and in the test with SW-620 colon was above 100 µM in each case. Moreover, the TGI in the test on DU-145 prostate, with HCC-2998 colon and with MDA-N was above 100 µM in each case.
As for `C=CCN1CCC2(CC1)NC(=O)c1ccccc1O2`, the TGI in the test on SNB-75 CNS, with NCI-H226 lung, in the test with A549 NSCLC, in the test with HS 578T breast, in the test with ACHN renal and in the test with SW-620 colon was above 100 µM each time. For the same compound, the TGI in the test on DU-145 prostate, with HCC-2998 colon and in the test on MDA-N was above 100 µM each time.
Take `COc1cc(C=O)cc(C=Nc2ccc(S(N)(=O)=O)cc2)c1O`: the TGI in the test with SNB-75 CNS was above 100 µM; in the test with NCI-H226 lung, 9.58 µM; in the test on A549 NSCLC, above 100 µM; in the test on HS 578T breast it was 6.16 µM; in the test on ACHN renal it was 35.2 µM; in the test with SW-620 colon, above 100 µM. For the same compound, the values for the TGI in the test with DU-145 prostate, with HCC-2998 colon and in the test with MDA-N were above 100 µM, 42.7 µM and 28.1 µM, respectively.
`C[N+](C)(N)c1nc(N)c(C#N)c(C#N)c1C#N`: the TGI in the test with SNB-75 CNS, in the test on NCI-H226 lung, in the test on A549 NSCLC, with HS 578T breast, in the test with ACHN renal and with SW-620 colon was above 10 µM each time. Besides, the TGI in the test on DU-145 prostate, with HCC-2998 colon and in the test on MDA-N was above 10 µM each time.
In the case of `COCCNC1CCC2(SCCS2)c2[nH]c3ccccc3c21` (stereo not given), the TGI in the test with SNB-75 CNS, in the test with NCI-H226 lung, in the test on A549 NSCLC, with HS 578T breast, in the test with ACHN renal and with SW-620 colon was above 100 µM throughout. Besides, the TGI in the test with DU-145 prostate was above 100 µM; with HCC-2998 colon, above 100 µM; with MDA-N, 57.9 µM.
Turning to `OCC(O)C(O)C(O)C(O)/C=N/Nc1nc(O)c(/C=C2\C=Nc3ccccc32)[nH]1` (stereo not given), the TGI with SNB-75 CNS, in the test with NCI-H226 lung, in the test on A549 NSCLC, in the test with HS 578T breast, in the test on ACHN renal and with SW-620 colon was above 100 µM throughout. Besides, the TGI with DU-145 prostate, in the test with HCC-2998 colon and in the test on MDA-N was above 100 µM throughout.
As for `CCOP(=O)(OCC)C(C)(C)OC(=O)NC#N`, the TGI in the test with SNB-75 CNS, in the test on NCI-H226 lung, with A549 NSCLC, in the test on HS 578T breast, in the test with ACHN renal and in the test with SW-620 colon was above 100 µM each time. The TGI with DU-145 prostate, in the test with HCC-2998 colon and in the test on MDA-N was above 100 µM each time.
Take `CC1(C)CC[C@]2(C(=O)O)[C@H](O)C[C@]3(C)C(=CC[C@@H]4[C@@]5(C)CC[C@H](OC6OC(C(=O)O)C(O)C(O)C6O)C(C)(C)[C@@H]5CC[C@]43C)[C@@H]2C1` (stereo not given in full): the TGI was above 100 µM in the test with SNB-75 CNS; above 100 µM in the test with NCI-H226 lung; above 100 µM in the test with A549 NSCLC; 80.9 µM with HS 578T breast; above 100 µM in the test with ACHN renal; above 100 µM in the test on SW-620 colon. Besides, the TGI in the test with DU-145 prostate, in the test with HCC-2998 colon and in the test on MDA-N was above 100 µM in each case.
`COc1ccccc1NS(=O)(=O)c1ccc2ncn(NS(=O)(=O)c3ccc(Cl)cc3)c(=O)c2c1`: the TGI in the test with SNB-75 CNS, in the test on NCI-H226 lung, with A549 NSCLC, in the test with HS 578T breast, in the test with ACHN renal and in the test with SW-620 colon was above 100 µM in each case. Further, the TGI in the test with DU-145 prostate, in the test on HCC-2998 colon and in the test on MDA-N was above 100 µM in each case.
Consider `CC1(C)CC2C(C1=O)C1(C)CCCC2(C)C1=O` (stereo not given), for which the TGI in the test with SNB-75 CNS, in the test with NCI-H226 lung, with A549 NSCLC, with HS 578T breast, in the test with ACHN renal and with SW-620 colon was above 100 µM in each case. Also, the TGI in the test with DU-145 prostate, in the test on HCC-2998 colon and with MDA-N was above 100 µM throughout.
In the case of `CCCCCCCCCCCCCCCCP(=O)([O-])OCC[N+](C)(C)C`, the TGI with SNB-75 CNS turned out to be 29 µM; in the test on NCI-H226 lung it was 40.9 µM; in the test on A549 NSCLC, 32.9 µM; in the test with HS 578T breast, 33.4 µM; in the test on ACHN renal, 31.9 µM; in the test on SW-620 colon it was 29.7 µM. Besides, the TGI in the test with DU-145 prostate turned out to be 28.3 µM; in the test with HCC-2998 colon it was 22 µM; in the test on MDA-N it was 30 µM.
Turning to `CC1=CC(=O)/C(=C/n2c(=S)[nH]c3ccccc32)C(=O)O1`, the TGI in the test with SNB-75 CNS, with NCI-H226 lung, with A549 NSCLC, in the test on HS 578T breast, in the test on ACHN renal and in the test with SW-620 colon was above 100 µM each time. Further, the TGI in the test on DU-145 prostate, in the test on HCC-2998 colon and in the test with MDA-N was above 100 µM in each case.
`C#CCCCC(=O)N(C(=O)CS(=O)CC)c1ccccc1` (stereo not given): the TGI in the test with SNB-75 CNS, with NCI-H226 lung, in the test with A549 NSCLC, in the test on HS 578T breast, in the test on ACHN renal and in the test on SW-620 colon was above 100 µM in each case. Further, the TGI in the test on DU-145 prostate, in the test with HCC-2998 colon and with MDA-N was above 100 µM throughout.
On to `COc1cccc(-c2cc(=O)c3cc(Cl)cnc3[nH]2)c1`, for which the TGI was above 100 µM with SNB-75 CNS; 1.57 µM in the test on NCI-H226 lung; 31.6 µM with A549 NSCLC; 47.6 µM in the test on HS 578T breast; 55.4 µM with ACHN renal; above 100 µM in the test on SW-620 colon. In addition, the TGI with DU-145 prostate is above 36.4 µM; with HCC-2998 colon it was 3.83 µM; with MDA-N it was 0.0239 µM.
